Earlier results in patent US20190105332A1, “METHODS OF TREATING PROSTATE CANCER” (Janssen Oncology, Inc., priority 2017, published 2019).
Like-named read-outs stand apart in the source and are kept apart here.

Key:
CYP2C8 = target: T1, CYP2C8 (Homo sapiens, UniProt P10632); parameters: from tissue; host or cells: in vivo, healthy human subjects (endogenous enzyme); conditions: healthy subjects; single dose of 1,000 mg abiraterone acetate
T1 sequence (P10632 1-490): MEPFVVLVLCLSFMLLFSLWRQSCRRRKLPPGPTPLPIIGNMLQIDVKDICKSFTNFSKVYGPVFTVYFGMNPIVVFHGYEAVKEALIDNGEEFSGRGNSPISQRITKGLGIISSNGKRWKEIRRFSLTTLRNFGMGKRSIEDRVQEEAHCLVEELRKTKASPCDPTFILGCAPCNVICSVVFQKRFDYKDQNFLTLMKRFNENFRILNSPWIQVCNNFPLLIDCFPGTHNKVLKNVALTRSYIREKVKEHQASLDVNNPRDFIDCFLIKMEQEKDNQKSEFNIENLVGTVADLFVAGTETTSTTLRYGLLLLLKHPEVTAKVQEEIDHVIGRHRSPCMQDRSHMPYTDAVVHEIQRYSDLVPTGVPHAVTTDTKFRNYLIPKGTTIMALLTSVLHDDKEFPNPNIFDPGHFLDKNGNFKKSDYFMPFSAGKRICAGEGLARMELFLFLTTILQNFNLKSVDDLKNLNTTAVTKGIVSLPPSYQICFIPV

[1] = not given; remark: listed apart in the source
[2] = not given; remark: listed apart in the source
[3] = not given; remark: listed apart in the source
[4] = 6-month study
[5] = rat micronucleus assay
[6] = not given; remark: listed apart in the source
[7] = not given; remark: listed apart in the source
CYP2D6 = target: T2, CYP2D6 (Homo sapiens, UniProt P10635)
T2 construct: from tissue; host or cells: in vivo, trial participants (endogenous hepatic enzyme)
T2 sequence (P10635 whole entry): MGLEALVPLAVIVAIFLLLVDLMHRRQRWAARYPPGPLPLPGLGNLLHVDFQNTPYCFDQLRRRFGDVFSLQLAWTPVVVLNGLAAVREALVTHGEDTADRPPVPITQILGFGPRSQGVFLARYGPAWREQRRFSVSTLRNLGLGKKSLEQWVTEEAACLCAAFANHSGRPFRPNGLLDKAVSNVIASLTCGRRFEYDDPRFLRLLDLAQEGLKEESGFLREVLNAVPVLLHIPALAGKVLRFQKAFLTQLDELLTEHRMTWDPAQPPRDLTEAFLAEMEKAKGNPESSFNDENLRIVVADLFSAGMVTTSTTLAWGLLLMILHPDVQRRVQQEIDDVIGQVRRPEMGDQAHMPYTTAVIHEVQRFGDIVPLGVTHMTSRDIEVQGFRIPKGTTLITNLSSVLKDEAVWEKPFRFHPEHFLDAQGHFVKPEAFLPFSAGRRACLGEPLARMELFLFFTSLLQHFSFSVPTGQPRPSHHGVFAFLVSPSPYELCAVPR

[8] = not given; remark: listed apart in the source
P-glycoprotein (P-gp) = P-glycoprotein (P-gp) (Homo sapiens, UniProt P08183); conditions: in vitro
Sequence of P-glycoprotein (P-gp) (P08183 whole entry): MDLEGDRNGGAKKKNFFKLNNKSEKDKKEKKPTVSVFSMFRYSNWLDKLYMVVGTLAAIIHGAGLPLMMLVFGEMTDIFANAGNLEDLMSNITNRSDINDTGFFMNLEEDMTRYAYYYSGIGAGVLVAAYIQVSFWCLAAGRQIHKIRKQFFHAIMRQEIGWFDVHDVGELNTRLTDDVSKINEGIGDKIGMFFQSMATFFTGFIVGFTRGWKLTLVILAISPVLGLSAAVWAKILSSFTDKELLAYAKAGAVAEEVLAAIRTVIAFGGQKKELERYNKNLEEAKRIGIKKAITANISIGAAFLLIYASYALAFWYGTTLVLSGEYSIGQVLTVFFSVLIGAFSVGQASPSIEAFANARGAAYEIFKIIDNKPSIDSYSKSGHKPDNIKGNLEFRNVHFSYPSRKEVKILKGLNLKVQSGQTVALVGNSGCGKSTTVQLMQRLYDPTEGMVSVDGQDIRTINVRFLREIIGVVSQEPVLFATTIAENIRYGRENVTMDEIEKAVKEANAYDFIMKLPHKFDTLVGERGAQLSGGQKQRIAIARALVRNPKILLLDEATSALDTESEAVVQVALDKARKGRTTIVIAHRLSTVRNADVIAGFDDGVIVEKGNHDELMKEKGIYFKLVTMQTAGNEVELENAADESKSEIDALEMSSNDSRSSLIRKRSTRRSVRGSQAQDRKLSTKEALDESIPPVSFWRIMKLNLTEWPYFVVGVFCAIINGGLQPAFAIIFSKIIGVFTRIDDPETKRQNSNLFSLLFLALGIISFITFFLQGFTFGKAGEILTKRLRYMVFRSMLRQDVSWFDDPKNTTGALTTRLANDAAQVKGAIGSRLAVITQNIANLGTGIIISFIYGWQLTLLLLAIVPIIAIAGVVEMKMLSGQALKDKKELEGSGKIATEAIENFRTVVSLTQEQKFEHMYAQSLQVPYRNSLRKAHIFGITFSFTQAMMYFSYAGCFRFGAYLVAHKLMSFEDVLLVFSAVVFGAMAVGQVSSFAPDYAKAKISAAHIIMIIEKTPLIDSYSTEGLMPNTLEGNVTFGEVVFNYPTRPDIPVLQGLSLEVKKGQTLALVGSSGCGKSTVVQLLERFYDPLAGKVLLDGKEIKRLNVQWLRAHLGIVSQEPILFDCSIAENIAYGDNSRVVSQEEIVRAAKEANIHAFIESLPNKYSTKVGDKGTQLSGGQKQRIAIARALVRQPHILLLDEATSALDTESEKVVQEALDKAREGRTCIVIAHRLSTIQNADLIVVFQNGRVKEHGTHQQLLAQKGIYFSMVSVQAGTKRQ

[9] = not given; remark: listed apart in the source
[10] = test system: primary human lymphocytes
CYP1A2 = target: T3, CYP1A2 (Homo sapiens, UniProt P05177); conditions: abiraterone acetate 1,000 mg daily plus prednisone 5 mg twice daily; single 100 mg theophylline
T3 sequence (P05177 1-516): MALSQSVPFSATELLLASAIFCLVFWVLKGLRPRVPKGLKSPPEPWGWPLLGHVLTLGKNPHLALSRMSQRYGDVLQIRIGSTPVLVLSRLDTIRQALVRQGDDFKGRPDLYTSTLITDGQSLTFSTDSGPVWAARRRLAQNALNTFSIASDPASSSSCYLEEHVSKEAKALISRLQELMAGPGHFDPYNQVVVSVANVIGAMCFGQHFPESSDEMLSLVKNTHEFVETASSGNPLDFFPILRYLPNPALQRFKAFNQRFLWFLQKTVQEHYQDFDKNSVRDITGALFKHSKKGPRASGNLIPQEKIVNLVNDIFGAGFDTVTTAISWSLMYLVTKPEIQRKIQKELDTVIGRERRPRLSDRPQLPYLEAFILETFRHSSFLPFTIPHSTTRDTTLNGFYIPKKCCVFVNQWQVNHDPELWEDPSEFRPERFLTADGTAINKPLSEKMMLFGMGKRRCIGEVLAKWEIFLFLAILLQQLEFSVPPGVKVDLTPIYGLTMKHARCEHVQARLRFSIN

[11] = oral, 2 weeks until day 7 of pregnancy
[12] = abiraterone acetate 1,000 mg daily and prednisone 5 mg twice daily

CC(=O)O[C@H]1CC[C@@]2(C)C(=CC[C@@H]3[C@@H]2CC[C@]2(C)C(c4cccnc4)=CC[C@@H]32)C1 [abiraterone acetate, (3β)-17-(3-pyridinyl) androsta-5,16-dien-3-yl acetate]
carcinogenicity in female rats (exposure levels up to 0.8 times the human clinical exposure based on AUC): not carcinogenic
carcinogenicity in male rats (oral 5, 15, and 50 mg/kg/day): increased the combined incidence of interstitial, cell adenomas and carcinomas in the testes at all dose levels tested
increase in AUC of pioglitazone (CYP2C8 substrate) (CYP2C8): 46%
conversion to abiraterone ([1]; likely through esterase activity): not CYP mediated
compound present in feces, share of the administered dose ([1]; oral 14C-abiraterone acetate): approximately 55%
radioactive dose recovered in feces ([1]; oral administration): approximately 88%
radioactive dose recovered in urine ([1]; oral administration): approximately 5%
systemic exposure (AUC) relative to the AUC in patients ([2]; 100 mg/kg/day): ~0.3 times
dose with decreased fetal body weight ([2]; oral, gestational days 6-17): 100 mg/kg/day
doses that caused maternal toxicity ([2]; oral, gestational days 6-17): ≥ 10 mg/kg/day
doses with decreased fetal ano-genital distance ([2]; oral, gestational days 6-17): ≥ 30 mg/kg/day
doses with embryo-fetal lethality, fetal developmental delay and urogenital effects ([2]; rat, in vivo, po): ≥ 10 mg/kg/day
exposure at which a reduction in circulating testosterone levels occurred ([3]; 13- and 39-week studies): approximately one half the human clinical exposure
cataracts ([3]; 39-week, daily oral, 2 times greater than the clinical exposure based on AUC): no cataracts were observed
doses with atrophy, aspermia/hypospermia, and hyperplasia in the reproductive system ([3]; 39-weeks): ≥ 250 mg/kg/day
carcinogenicity [4]: not carcinogenic
clastogenicity in vivo [5]: not mutagenic in an in vitro microbial mutagenesis (Ames) assay or clastogenic
dose with pre-implantation loss [6, 11]: 300 mg/kg/day
doses with increased incidence of irregular or extended estrous cycles [6, 11]: ≥ 30 mg/kg/day
mating, fertility, and litter parameters ([6]; rat, in vivo): no differences
time after last administration at which effects on female rats were reversible ([6]; rat, in vivo): 4 weeks
exposure at which a reduction in circulating testosterone levels occurred ([7]; 13- and 26-week studies): approximately one half the human clinical exposure
doses with dose-dependent increase in cataracts ([7]; daily oral, 26 weeks, similar to the human clinical exposure based on AUC): ≥ 50 mg/kg/day
doses with atrophy, aspermia/hypospermia, and hyperplasia in the reproductive system ([7]; male rats, 13- and 26-weeks): ≥ 50 mg/kg/day
increase in AUC of dextromethorphan (CYP2D6 substrate) (CYP2D6; [12]): 2.9 fold
increase in Cmax of dextromethorphan (CYP2D6 substrate) (CYP2D6; [12]): 2.8 fold
increase in AUC for dextrorphan (CYP2D6; abiraterone acetate 1,000 mg daily plus prednisone 5 mg twice daily): approximately 1.3 fold
30 mg/kg/day in rats relative to the recommended dose of 1,000 mg/day ([8]; based on body surface area): approximately 0.3 times
doses with reduced reproductive organ weights, sperm counts, sperm motility, altered sperm morphology and decreased fertility ([8]; dosed orally for 4 weeks): ≥ 30 mg/kg/day
time after last administration at which effects on male rats were reversible ([8]; rat, in vivo): 16 weeks
inhibition of P-gp (P-glycoprotein (P-gp)): inhibitor
substrate of P-glycoprotein (P-gp) (P-glycoprotein (P-gp); clinically relevant concentrations): not substrates
octanol-water partition coefficient (Log P) [9]: 5.12
pKa of the aromatic nitrogen [9]: 5.19
solubility in water [9]: practically insoluble
clastogenicity in vitro [10]: not mutagenic in an in vitro microbial mutagenesis (Ames) assay or clastogenic
systemic exposure of theophylline (CYP1A2 substrate) (CYP1A2): no increase
